# Laboratory results taken from patent publication US9382295B2, “Cyclic depsipeptide compounds and their uses” (Cypralis Limited, priority 2012, dated 2016).
# Like-named read-outs stand apart in the source and are kept apart here. Numbered stars: 1 amine (or outer) side, 2 acyl side, 3 side chain; on linkers, the order of the positions; unused ones are H or OH. Square brackets hold non-standard residues; d marks the D form. Peptide text beside a SMILES is read from it. X26 = C[C@H](C/C=C/c1cccc(N2CCOCC2)n1)[C@@H](O)[C@H](C(=O)[*:2])N(C)[*:1]; X10 = Cc1cccc(/C=C/C[C@@H](C)[C@@H](O)[C@H](C(=O)[*:2])N(C)[*:1])n1; X21 = C[C@H](CCN(C)C1CCOCC1)[C@@H](O)[C@H](C(=O)[*:2])N(C)[*:1]; X23 = COC1CN(CC[C@@H](C)[C@@H](O)[C@H](C(=O)[*:2])N(C)[*:1])C1; X14 = C[C@H](CCCc1ncccn1)[C@@H](O)[C@H](C(=O)[*:2])N(C)[*:1]; X31 = COCCN(C)CC[C@@H](C)[C@@H](O)[C@H](C(=O)[*:2])N(C)[*:1]; X16 = C[C@H](CCN1CCOCC1)[C@@H](O)[C@H](C(=O)[*:2])N(C)[*:1]; d(aThr) = C[C@@H](O)[C@@H](N)C(=O)O; NMeL = CN[C@@H](CC(C)C)C(=O)O; dNMeL = CN[C@H](CC(C)C)C(=O)O; dNMeV = CN[C@@H](C(=O)O)C(C)C; Hiv = CC(C)[C@H](O)C(=O)O; dAbu = CC[C@@H](N)C(=O)O; Sar = CNCC(=O)O
# How the values were obtained:
# cyclophilin D (Cyp D) = cyclophilin D (Cyp D) (Homo sapiens, UniProt P30405); test: Protease-free PPIase assay, cyclophilin D; assay type: biochemical
# Procedure: (§1) The protease-free PPIase assay measures the rate of cis to trans conversion of a peptide substrate catalyzed by the enzymes cyclophilin A and cyclophilin D. Addition of a cyclophilin inhibitor (e.g., a test compound) slows the catalyzed rate and a Ki value is obtained. […] 35 mM HEPES pH 7.8, filtered through a 0.2 μm filter. 50 μM DTT was added prior to use each day and then the buffer was stored on ice. Succinimide-[…]) (from Bachem AG, L-1400), 20 mg/ml prepared in 0.5 M LiCl in trifluoroethanol. All readings were taken with an Agilent 8453 Spectrophotometer which consists of a cuvette holder, stirrer and chiller to maintain a stirred cuvette temperature of 10.0±0.1° C. The temperature is monitored by the use of temperature probe. […] The inhibitor was diluted in 100% DMSO, and then added to the assay to a maximum final concentration of 0.5% DMSO in the assay. A blank spectrum was obtained, then 3 μL of enzyme was added (2 nM final concentration) and then 3 μL substrate (60 μM final concentration) added. The absorbance was measured at 330 nm for 300 s or 500 s for blank runs (NOTE: the substrate must be added in one quick injection and the measurements started immediately to minimize mixing errors). A first order rate equation was fitted to the absorbance data, for each concentration of inhibitor, to obtain the rate constant (the first 10 to 15 seconds were excluded as mixing causes errors in this portion of curve). The catalytic rate was calculated from the enzymatic rate constant minus the background rate constant. An exponential curve was generated using the catalytic rate constants versus the inhibitor concentration to obtain the Ki value for the inhibitor. The Ki value is indicative of the binding affinity between the test compound and cyclophilin A or cyclophilin D.
# cyclophilin A (Cyp A) = target: T1, cyclophilin A (Cyp A) (Homo sapiens, UniProt P62937); test: Protease-free PPIase assay, cyclophilin A; assay type: biochemical
# T1 construct: purchased Sigma C3805
# Procedure: as §1, with “ice. Human recombinant cyclophilin A (Cyp A) (Sigma C3805) enzyme was diluted to 1 μM with enzyme dilution buffer (20 mM HEPES pH 7.8, 40% glycerol, 50 μM DTT and 1 μM BSA) and stored at -20° C.” for “ice.”
# [1] = Water solubility assay (pH 7.8 buffer); assay type: physicochemical
# Procedure: ***Water Solubility Assay (Measured in pH 7.8 Buffer)
# The onset of precipitation, if it occurred, was detected by an increase in absorbance at 650 nm.
# Assay Buffer: 35 mM HEPES pH 7.8
# Stock solutions of Control and Test Compounds: 10 mM in 100% DMSO
# 10 mM stock solutions of control and test compounds were prepared in 100% DMSO. A series of dilutions were prepared from the stock in DMSO so that the final concentrations in the assay were 0, 3.33, 10, 25, 50, 75 and 100 μM and DMSO was limited to 1%.
# Assay buffer (247.5 μl) was placed into flat bottomed transparent 96-well plate. For blank samples DMSO (2.5 μl) was added. For test and control samples 2.5 μl of the appropriate DMSO dilution stocks were added to the appropriate well. All test and control compounds were performed in triplicate.
# The plates were sealed with adhesive plate seal and shaken at 250 rpm at 25° C. for 18 h on a plate shaker.
# After incubation the plate seals were taken off and any bubbles observed in wells removed. The plates were read on a SpectraMaxM5 with a 5 s pre-shake at 650 nm.
# Data files were transferred to the appropriate worksheet and the solubility range of the compounds was calculated from the data.
# The values shown in the tables indicate the concentration in μM (micromolar) at which the compound remains in solution.
# cyclophilin D (Cyp D), sequence (P30405 30-207): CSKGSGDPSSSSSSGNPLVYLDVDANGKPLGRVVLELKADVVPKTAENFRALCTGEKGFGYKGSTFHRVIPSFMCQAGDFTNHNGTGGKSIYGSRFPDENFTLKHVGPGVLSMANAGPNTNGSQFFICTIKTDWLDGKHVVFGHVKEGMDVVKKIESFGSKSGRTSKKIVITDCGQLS
# T1 sequence (P62937 whole entry): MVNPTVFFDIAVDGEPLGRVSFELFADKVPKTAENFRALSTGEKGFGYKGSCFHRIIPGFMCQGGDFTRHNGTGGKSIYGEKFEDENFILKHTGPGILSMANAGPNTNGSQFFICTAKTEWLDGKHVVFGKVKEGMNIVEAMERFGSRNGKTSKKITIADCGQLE
SMILES,Ki (cyclophilin D (Cyp D)),Ki (cyclophilin A (Cyp A)),solubility at 18 h ([1]; pH 7.8),"Ki (cyclophilin D (Cyp D); protease-free PPIase assay, class symbols, read-out: CypD Ki)","Ki (cyclophilin A (Cyp A); protease-free PPIase assay, class symbols, read-out: CypA Ki)","solubility at 18 h ([1]; 35 mM HEPES buffer, 35 mM HEPES pH 7.8, 1% DMSO, 25° C., 18 h, concentration at which compound remains in solution, read-out: Solubility)"
"Cc1cccc(/C=C/C[C@@H](C)[C@@H](O)[C@@H]2C(=O)N[C@H]([C@@H](C)O)C(=O)N(C)CC(=O)N(C)[C@@H](CC(C)C)C(=O)N[C@H](CC(C)C)C(=O)N(C)[C@H](CC(C)C)C(=O)N[C@H](C)C(=O)O[C@@H](C(C)C)C(=O)N(C)[C@H](CC(C)C)C(=O)N[C@H](CC(C)C)C(=O)N(C)[C@H](C(C)C)C(=O)N2C)n1 [Example 14, cyclo-[(3R,4R,5S)-4-(hydroxy)-3-methyl-5-(methylamino)-1-(6-methyl-pyridin-2-yl)-hept-1-enoic acid-Thr-Sar-MeLeu-Leu-MeLeu-Ala-D-Hiv-MeLeu-Leu-MeVal]] (cyclo([Hiv][dNMeL][dL][dNMeV][X10][d(aThr)][Sar][NMeL][dL][dNMeL][dA]))",1 to 25 nM,1 to 25 nM,10 to 25 µM,,,
"CC(C)C[C@@H]1C(=O)N[C@H](CC(C)C)C(=O)N(C)[C@H](C(C)C)C(=O)N(C)[C@H]([C@H](O)[C@H](C)CCCc2ncccn2)C(=O)N[C@H]([C@@H](C)O)C(=O)N(C)CC(=O)N(C)[C@@H](CC(C)C)C(=O)N[C@H](CC(C)C)C(=O)N(C)[C@H](CC(C)C)C(=O)N[C@H](C)C(=O)O[C@@H](C(C)C)C(=O)N1C [Example 16, cyclo-[(3R,4R,5S)-4-(hydroxy)-3-methyl-5-(methylamino)-1-(pyrimidin-2-yl)-heptanoic acid-Thr-Sar-MeLeu-Leu-MeLeu-Ala-D-Hiv-MeLeu-Leu-MeVal]] (cyclo([Hiv][dNMeL][dL][dNMeV][X14][d(aThr)][Sar][NMeL][dL][dNMeL][dA]))",1 to 25 nM,1 to 25 nM,25 to 50 µM,,,
"CC(C)C[C@@H]1C(=O)N[C@H](CC(C)C)C(=O)N(C)[C@H](C(C)C)C(=O)N(C)[C@H]([C@H](O)[C@H](C)C/C=C/c2cccc(N3CCOCC3)n2)C(=O)N[C@H]([C@@H](C)O)C(=O)N(C)CC(=O)N(C)[C@@H](CC(C)C)C(=O)N[C@H](CC(C)C)C(=O)N(C)[C@H](CC(C)C)C(=O)N[C@H](C)C(=O)O[C@@H](C(C)C)C(=O)N1C [Example 18, cyclo-{(3R,4R,5S)-4-(hydroxy)-3-methyl-5-(methylamino)-1-(6-morpholin-4-yl-pyridin-2-yl)-hept-1-enoic acid-Thr-Sar-MeLeu-Leu-MeLeu-Ala-D-Hiv-MeLeu-Leu-MeVal}] (cyclo([Hiv][dNMeL][dL][dNMeV][X26][d(aThr)][Sar][NMeL][dL][dNMeL][dA]))",,,,1 to 25 nM,1 to 25 nM,10 to 25 µM
"CC[C@H]1NC(=O)[C@@H]([C@H](O)[C@H](C)C/C=C/c2cccc(C)n2)N(C)C(=O)[C@@H](C(C)C)N(C)C(=O)[C@@H](CC(C)C)NC(=O)[C@@H](CC(C)C)N(C)C(=O)[C@H](C(C)C)OC(=O)[C@@H](C)NC(=O)[C@@H](CC(C)C)N(C)C(=O)[C@@H](CC(C)C)NC(=O)[C@H](CC(C)C)N(C)C(=O)CN(C)C1=O [Example 19, cyclo-[(3R,4R,5S)-4-(hydroxy)-3-methyl-5-(methylamino)-1-(6-methyl-pyridin-2-yl)-hept-1-enoic acid-Abu-Sar-MeLeu-Leu-MeLeu-Ala-D-Hiv-MeLeu-Leu-MeVal]] (cyclo([Hiv][dNMeL][dL][dNMeV][X10][dAbu][Sar][NMeL][dL][dNMeL][dA]))",1 to 25 nM,1 to 25 nM,10 to 25 µM,,,

# Results, then the compound that gave them:
Ki (cyclophilin D (Cyp D)),Ki (cyclophilin A (Cyp A)),solubility at 18 h ([1]; pH 7.8),"Ki (cyclophilin D (Cyp D); protease-free PPIase assay, class symbols, read-out: CypD Ki)","Ki (cyclophilin A (Cyp A); protease-free PPIase assay, class symbols, read-out: CypA Ki)","solubility at 18 h ([1]; 35 mM HEPES buffer, 35 mM HEPES pH 7.8, 1% DMSO, 25° C., 18 h, concentration at which compound remains in solution, read-out: Solubility)",SMILES
1 to 25 nM,25 to 100 nM,> 100 µM,,,,"COCCN(C)CC[C@@H](C)[C@@H](O)[C@@H]1C(=O)N[C@H]([C@@H](C)O)C(=O)N(C)CC(=O)N(C)[C@@H](CC(C)C)C(=O)N[C@H](CC(C)C)C(=O)N(C)[C@H](CC(C)C)C(=O)N[C@H](C)C(=O)O[C@@H](C(C)C)C(=O)N(C)[C@H](CC(C)C)C(=O)N[C@H](CC(C)C)C(=O)N(C)[C@H](C(C)C)C(=O)N1C [Example 10, cyclo-{(3R,4R,5S)-4-(hydroxy)-3-methyl-5-(methylamino)-1-N-[(2-methoxy-ethyl)-methyl-amino]-hexanoic acid-Thr-Sar-MeLeu-Leu-MeLeu-Ala-D-Hiv-MeLeu-Leu-MeVal}] (cyclo([Hiv][dNMeL][dL][dNMeV][X31][d(aThr)][Sar][NMeL][dL][dNMeL][dA]))"
1 to 25 nM,1 to 25 nM,> 100 µM,,,,"COC1CN(CC[C@@H](C)[C@@H](O)[C@@H]2C(=O)N[C@H]([C@@H](C)O)C(=O)N(C)CC(=O)N(C)[C@@H](CC(C)C)C(=O)N[C@H](CC(C)C)C(=O)N(C)[C@H](CC(C)C)C(=O)N[C@H](C)C(=O)O[C@@H](C(C)C)C(=O)N(C)[C@H](CC(C)C)C(=O)N[C@H](CC(C)C)C(=O)N(C)[C@H](C(C)C)C(=O)N2C)C1 [Example 11, cyclo-{(3R,4R,5S)-4-(hydroxy)-3-methyl-5-(methylamino)-1-N-(3-methoxy-azetidinyl)-hexanoic acid-Thr-Sar-MeLeu-Leu-MeLeu-Ala-D-Hiv-MeLeu-Leu-MeVal}] (cyclo([Hiv][dNMeL][dL][dNMeV][X23][d(aThr)][Sar][NMeL][dL][dNMeL][dA]))"
1 to 25 nM,25 to 100 nM,> 100 µM,,,,"CC(C)C[C@@H]1C(=O)N[C@H](CC(C)C)C(=O)N(C)[C@H](C(C)C)C(=O)N(C)[C@H]([C@H](O)[C@H](C)CCN(C)C2CCOCC2)C(=O)N[C@H]([C@@H](C)O)C(=O)N(C)CC(=O)N(C)[C@@H](CC(C)C)C(=O)N[C@H](CC(C)C)C(=O)N(C)[C@H](CC(C)C)C(=O)N[C@H](C)C(=O)O[C@@H](C(C)C)C(=O)N1C [Example 12, cyclo-{(3R,4R,5S)-4-(hydroxy)-3-methyl-5-(methylamino)-1-N-(methyl-(tetrahydro-pyran-4-yl)-amino)-hexanoic acid-Thr-Sar-MeLeu-Leu-MeLeu-Ala-D-Hiv-MeLeu-Leu-MeVal}] (cyclo([Hiv][dNMeL][dL][dNMeV][X21][d(aThr)][Sar][NMeL][dL][dNMeL][dA]))"
1 to 25 nM,1 to 25 nM,25 to 50 µM,,,,"CC[C@H]1NC(=O)[C@@H]([C@H](O)[C@H](C)CCN2CCOCC2)N(C)C(=O)[C@@H](C(C)C)N(C)C(=O)[C@@H](CC(C)C)NC(=O)[C@@H](CC(C)C)N(C)C(=O)[C@H](C(C)C)OC(=O)[C@@H](C)NC(=O)[C@@H](CC(C)C)N(C)C(=O)[C@@H](CC(C)C)NC(=O)[C@H](CC(C)C)N(C)C(=O)CN(C)C1=O [Example 13, cyclo-[(3R,4R,5S)-4-(hydroxy)-3-methyl-5-(methylamino)-1-N-morpholino-hexanoic acid-Abu-Sar-MeLeu-Leu-MeLeu-Ala-D-Hiv-MeLeu-Leu-MeVal]] (cyclo([Hiv][dNMeL][dL][dNMeV][X16][dAbu][Sar][NMeL][dL][dNMeL][dA]))"
